The subject of series [1] is IL-2 in Jurkat (ATCC, clone E6.1) cells stimulated with anti-CD3/28/2. The series can be described thus: Jurkat IL-2 Assay. The class given is cell-based. Conditions: Homo sapiens; IL-2 inhibition, Jurkat cells, 30 min compound then anti-CD3/28/2 stimulation for 24 hours; mean value if tested more than once; read-out: IC50. The method, boiled down: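 Jurkat E6.1 T cells in RPMI/10% FBS (below passage 25) were preincubated with a compound dose-response for 30 min, then stimulated with soluble anti-CD3/28/2 for 24 h. IL-2 in the supernatant was measured by MSD immunoassay and viability by CellTiter-Glo luminescence. IC50 came from a 4-parameter fit, reported as ranges, with the mean used where tested repeatedly.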

Series [2] can be described thus: High Throughput Dialysis (HTD) Human Plasma Protein Binding Assay. The class given is in vitro ADME. The note with it: pooled human plasma, pH 7.4, equilibrium dialysis, 37° C., read-out: Human PPB (% Unbound). As to the method: Human plasma protein binding of various compounds of formula (I) were evaluated using the equilibrium dialysis method described herein.
The dialysis membrane strips (HTD % a/b, catalog number 1101, HTDialysis LLC, Gales Ferry, CT, USA) were soaked in ultra-pure water at room temperature for approximately 1 hour. Each membrane strip containing 2 membranes was separated and soaked in 20:80 ethanol/water (v/v) for approximately 20 minutes, after which they were ready for use or were stored in the solution at 2-8° C. for up to a month. Prior to the experiment, the membrane was rinsed three times and soaked for 20 minutes in ultra-pure water.
On the day of experiment, the human plasma (BiolVT, catalog number […], sodium heparin or EDTA-K2 anticoagulant, multiple individuals pooled) was thawed by running under cold tap water and centrifuged at 3220 rpm for 5 minutes to remove any clots. The pH value of the resulting plasma was confirmed to be 7.0-8.0.
The test compounds and warfarin control (Stru Chem, catalog number SC-16139) were dissolved in dimethyl sulfoxide (DMSO) to obtain 10 mM stock solutions. DMSO working solutions were prepared at 400 μM. To prepare the loading matrix, the compound working solutions (5 μL) were added in a 1:200 ratio to blank human plasma (995 μL) and mixed thoroughly.
The time zero (T0) samples to be used for recovery determination were prepared as follows: 50 μL aliquots of loading matrix were transferred in triplicate to the sample collection plate. The samples were immediately matched with opposite blank buffer (basic solution (14.2 g/L Na2HPO4 and 8.77 g/L NaCl in deionized water) titrated with acidic solution (15.6 g/L NaH2PO4·2H2O and 8.77 g/L NaCl in deionized water) to pH 7.4±0.1) to obtain a final volume of 100 μL of 1:1 matrix/dialysis buffer (v/v) in each well. 500 μL stop solution (200 ng/mL tolbutamide and 200 ng/mL labetalol in acetonitrile) were added to these TO samples. They were then stored at 2-8° C. for further processing along with other post-dialysis samples.
To load the dialysis device (96-well equilibrium dialysis plate, model 96b, catalog number 1006. HTDialysis LLC, Gales Ferry, CT, USA), an aliquot of 150 μL of the loading matrix was transferred to the donor side of each dialysis well in triplicate, and 150 μL of the dialysis buffer was loaded to the receiver side of the well. The dialysis plate was placed in a humidified incubator at 37° C. with 5% CO2 on a shaking platform that rotated slowly (about 100 rpm) for 4 hours.
At the end of the dialysis, aliquots of 50 μL of the samples were taken from both the buffer side and the matrix side of the dialysis device. These samples were transferred into new 96-well plates (polypropylene, 2.2 mL/well, catalog number DWP-22-96-SQ-U-C-L. Apricot). Each sample was mixed with an equal volume of opposite blank matrix (buffer or matrix) to reach a final volume of 100 μL of 1:1 matrix/dialysis buffer (v/v) in each well. All samples were further processed by adding 500 μL of stop solution containing internal standards. The mixture was vortexed and centrifuged at 4000 rpm for about 20 minutes. An aliquot of 100 μL of supernatant of all the samples was then removed for LC-MS/MS analysis. Test compound concentrations in matrix and buffer samples were expressed as peak area ratios (PAR) of analyte/internal standard (no standard curve).
The single blank samples were prepared by transferring 50 μL of blank matrix to a 96 well plate (polypropylene. 2.2 mL/well, catalog number DWP-22-96-SQ-U-C-L, Apricot) and adding 50 μL of blank PBS buffer to each well. The blank plasma must match the species of plasma used in the plasma side of the well. Then the matrix-matched samples were further processed by adding 500 μL of stop solution containing internal standards, following the same sample processing method as the dialysis samples. […]
Background: In equilibrium dialysis free small molecules cross a membrane that holds back macromolecules.

Series [3] in a line: Thermodynamic Solubility (Ts) Assay in Fasted State Simulated Intestinal Fluid (FaSSIF). The class given is physicochemical. The note with it: thermodynamic from solid, FaSSIF pH 6.5, shake flask, 25° C., HPLC-UV. Here is the method:
The solubilities of various compounds of formula (I) were determined using a thermodynamic solubility assay. The thermodynamic solubility assay employed the shake flask method followed by HPLC-UV analysis. The following stepwise procedure was followed:
Samples of no less than 2.0 mg were weighed into the lower chambers of Whatman mini-uniprep vials (catalog number UN203NPUORG) and 450 μL of FaSSIF media (0.056% (w/v) lecithin, 0.161% (w/v) sodium taurocholate, 0.39% (w/v) monobasic potassium phosphate, 0.77% (w/v) potassium chloride, deionized H2O, pH 6.5) was added into each vial.
After the buffer was added, the filter pistons of the mini-uniprep vials were placed to the position of the liquid level to ensure the full contact of buffer and compound with the filter during the incubation.
The samples were then vortexed for 2 minutes, after which they were incubated at 25° C. with shaking (880 rpm) for 24 hours.
The samples were then centrifuged at 4000 rpm (20° C.) for 10 min.
The miniunipreps were then compressed to prepare filtrates, and the test concentration of the compound in the filtrate was determined using HPLC-UV (Waters XBridge C18, 4.6*100 mm column; mobile phase A: 0.1% TFA in H2O; mobile phase B: 0.1% TFA in acetonitrile). At least 5 UV standard solutions (e.g. amiodarone hydrochloride, carbamazepine, dexamethasone) were injected into the HPLC from low to high concentration subsequently followed by testing of the thermodynamic solubility supernatants in duplicate. The solubilities of the tested compounds are given in μg/mL.

Another series addresses full length MALT1 (Homo sapiens (Human), UniProt Q9UDY8). The series is described as follows: MALT1 Biochemical Assay. Conditions: 15 nM enzyme, 30 μM peptide substrate Ac-Leu-Arg-Ser-Arg-Rh110-dPro, 30 min pre-incubation, 60 min reaction; mean value if tested more than once. The method, boiled down: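 Full-length human MALT1 was pre-incubated with compound for 30 min, then cleaved a fluorogenic peptide for 60 min in 50 mM Hepes pH 7.5 with 0.8 M sodium citrate and 1 mM DTT. The reaction was quenched with 10 mM iodoacetate and fluorescence was read at 485/520 nm. IC50 came from four-parameter logistic fits of percent inhibition.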

The text below walks through data of patent US20230391781A1, “MALT1 MODULATORS AND USES THEREOF” (Rheos Medicines, Inc., priority 2020, published 2023).

The term IC50 denotes the concentration that inhibits the measured activity by half. As a reminder, the solubility is how much of the substance goes into solution per volume. A higher solubility goes with a readily soluble substance.

Converted amounts (≈) assume the structure as drawn. A value given as a limit tells only on which side of the number the result lay.

Chain of full length MALT1 (Q9UDY8 whole entry): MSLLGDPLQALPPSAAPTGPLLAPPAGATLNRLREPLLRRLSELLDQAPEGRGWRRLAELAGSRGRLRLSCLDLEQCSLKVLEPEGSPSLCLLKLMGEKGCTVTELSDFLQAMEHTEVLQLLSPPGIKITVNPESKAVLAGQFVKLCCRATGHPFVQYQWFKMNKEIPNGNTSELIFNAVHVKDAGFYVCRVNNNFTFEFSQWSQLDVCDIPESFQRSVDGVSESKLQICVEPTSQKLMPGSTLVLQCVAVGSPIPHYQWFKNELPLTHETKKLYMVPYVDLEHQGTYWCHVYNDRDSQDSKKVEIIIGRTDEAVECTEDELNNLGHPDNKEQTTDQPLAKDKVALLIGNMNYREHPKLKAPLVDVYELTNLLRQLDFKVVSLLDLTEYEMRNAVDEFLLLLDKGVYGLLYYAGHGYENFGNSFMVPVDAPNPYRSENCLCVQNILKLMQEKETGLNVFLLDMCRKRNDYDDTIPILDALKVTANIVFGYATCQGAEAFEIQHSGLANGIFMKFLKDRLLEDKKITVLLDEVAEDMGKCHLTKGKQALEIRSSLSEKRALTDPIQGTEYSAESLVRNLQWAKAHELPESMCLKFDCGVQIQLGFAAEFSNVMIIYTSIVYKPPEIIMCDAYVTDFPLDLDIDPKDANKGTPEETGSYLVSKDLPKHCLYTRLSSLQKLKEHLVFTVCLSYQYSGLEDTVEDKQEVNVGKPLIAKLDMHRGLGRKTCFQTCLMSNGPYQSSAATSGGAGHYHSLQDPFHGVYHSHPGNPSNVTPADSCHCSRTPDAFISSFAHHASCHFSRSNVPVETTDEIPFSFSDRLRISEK

For `CO[C@@H](C)c1c(Nc2ccc([C@H](N(C)C(=O)C3CN(C(C)=O)C3)C(F)(F)F)cc2)cnc2nc(Cl)nn12` [Compound 1.15, 1-acetyl-N-[(1S)-1-[4-({2-chloro-7-[(1S)-1-methoxyethyl]-[1,2,4]triazolo[1,5-a]pyrimidin-6-yl}amino)phenyl]-2,2,2-trifluoroethyl]-N-methylazetidine-3-carboxamide], the half-inhibitory concentration (IC50) (in series [1]; against full length MALT1) was 0.1 to 1 µM in each case. Besides, the fraction unbound at 4 h, 2 µM in series [2] is over 0.2. In series [3], this molecule came in with a solubility at 24 h of over 1.75 mg/mL.

In the case of `CO[C@@H](C)c1c(Nc2ccc([C@H](N(C)C(=O)C3CCN(S(C)(=O)=O)CC3)C(F)(F)F)cc2)cnc2nc(Cl)nn12` [Compound 3.4, N-[(1S)-1-[4-({2-chloro-7-[(1S)-1-methoxyethyl]-[1,2,4]triazolo[1,5-a]pyrimidin-6-yl}amino)phenyl]-2,2,2-trifluoroethyl]-1-methanesulfonyl-N-methylpiperidine-4-carboxamide], the 50% inhibitory concentration (IC50) in series [1] was 0.1 to 1 µM; on full length MALT1, under 0.1 µM. In addition, the fraction unbound at 4 h, 2 µM in series [2] was under 0.08. In series [3], this molecule registered a solubility at 24 h of under 0.25 mg/mL.

Turning to `CO[C@@H](C)c1c(Nc2ccc([C@H](N(C)C(=O)[C@H]3CC[C@H](C(=O)N(C)C)CC3)C(F)(F)F)cc2)cnc2nc(Cl)nn12` [Compound 8.3, (1r,4S)—N1-((S)-1-(4-((2-chloro-7-((S)-1-methoxyethyl)-[1,2,4]triazolo[1,5-a]pyrimidin-6-yl)amino)phenyl)-2,2,2-trifluoroethyl)-N1,N4,N4-trimethylcyclohexane-1,4-dicarboxamide], the half-maximal inhibitory concentration (IC50) (in series [1]; at full length MALT1) was 0.1 to 1 µM in each case. The fraction unbound at 4 h, 2 µM in series [2] lay in the range of 0.08 to 0.2. In series [3], this molecule yielded a solubility at 24 h of 0.25 to 1.75 mg/mL (≈ 419 to 2940 µM).

Regarding `CO[C@@H](C)c1c(Nc2ccc([C@H](N(C)C(=O)C3CCS(=O)(=O)CC3)C(F)(F)F)cc2)cnc2nc(Cl)nn12` [Compound 1.1, N-[(1S)-1-[4-({2-chloro-7-[(1S)-1-methoxyethyl]-[1,2,4]triazolo[1,5-a]pyrimidin-6-yl}amino)phenyl]-2,2,2-trifluoroethyl]-N-methyl-1,1-dioxo-1λ^6-thiane-4-carboxamide], the values for the IC50 (in series [1]; against full length MALT1) were 0.1 to 1 µM and under 0.1 µM, respectively. For the same molecule, the fraction unbound at 4 h, 2 µM in series [2] is over 0.2. Also, the solubility at 24 h in series [3] was 0.25 to 1.75 mg/mL (≈ 435 to 3040 µM).

Regarding `CO[C@@H](C)c1c(Nc2ccc([C@H](N(C)C(=O)C3CCC(F)(F)CC3)C(F)(F)F)cc2)cnc2nc(Cl)nn12` [Compound 1.8, N-[(1S)-1-[4-({2-chloro-7-[(1S)-1-methoxyethyl]-[1,2,4]triazolo[1,5-a]pyrimidin-6-yl}amino)phenyl]-2,2,2-trifluoroethyl]-4,4-difluoro-N-methylcyclohexane-1-carboxamide], the IC50 (in series [1]; at full length MALT1) was 0.1 to 1 µM each time. Also, the fraction unbound at 4 h, 2 µM in series [2] is under 0.08. In series [3], this molecule had a solubility at 24 h of under 0.25 mg/mL.

In the case of `CO[C@@H](C)c1c(Nc2ccc([C@H](N(C)C(=O)[C@H]3C[C@H](c4nnn[nH]4)C3)C(F)(F)F)cc2)cnc2nc(Cl)nn12` [Compound 9.1, (1r,3S)—N—((S)-1-(4-((2-chloro-7-((S)-1-methoxyethyl)-[1,2,4]triazolo[1,5-a]pyrimidin-6-yl)amino)phenyl)-2,2,2-trifluoroethyl)-N-methyl-3-(1H-tetrazol-5-yl)cyclobutane-1-carboxamide], the IC50 in series [1] is over 1 µM; against full length MALT1 it was under 0.1 µM. The fraction unbound at 4 h, 2 µM in series [2] was under 0.08. In series [3], the solubility at 24 h is over 1.75 mg/mL.
